Where two headings read alike, the source gives them in different places.
Assays:
Format in all cases: cell-based, human
Target C [1] = assay: Splicing RT-qPCR panel, Target C canonical junction (CJ) mRNA; conditions: read-out: Target C IC50 (decrease in CJ mRNA levels)
How it was run: (§1)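 First, A673 cells adhered 24 h, while K562 cells were plated directly. Next, compounds were added as an 11-point 3-fold series from 10 uM for 24 h. Finally, lysates went to RT-qPCR, with 2^(−ΔΔCt) values converted to percentage response.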

Target C [2] = assay: HiBiT protein abundance assay, Target C; conditions: modified K562 cells
How it was run: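 HiBiT knock-in K562-derived cells seeded at 10000/well and treated with 10-point 3-fold dilutions (top final 10 μM, ≤0.25% DMSO) for 24 h at 37 °C. Lytic HiBiT luminescence normalised to unmodified-cell and DMSO controls; IC50 from 4-parameter fit at 50% abundance.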

MYB [3] = assay: Splicing RT-qPCR assay, MYB mRNA canonical junction (CJ) and alternative junction (AJ); conditions: for AC50: increase in AJ mRNA
How it was run: as §1

HTT [4] = assay: Splicing RT-qPCR assay, HTT mRNA canonical junction (CJ) and alternative junction (AJ); conditions: for AC50: increase in AJ mRNA
How it was run: as §1

HTT [5] = assay: HiBiT protein abundance assay, HTT; conditions: modified K562 cells
How it was run: (§2)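 HiBiT-tagged endogenous targets in K562 cells treated 24 h at 37° C. with 10-point 3-fold dilutions (top 10 μM, DMSO ≤0.25%). Luminescence read after lytic LgBiT detection; response normalised to unmodified-cell and DMSO controls, IC50 interpolated at 50% from four-parameter logistic fit.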

SMN2 = assay: Splicing RT-qPCR panel, SMN2 canonical junction (CJ) mRNA; conditions: read-out: SMN2 IC50 (decrease in CJ mRNA levels)
How it was run: as §1

MYB [6] = assay: HiBiT protein abundance assay, MYB; conditions: modified K562 cells
How it was run: as §2

[7] = RT-qPCR panel, canonical junction mRNA, compound concentration having 50% response in CJ decrease
[8] = Homo sapiens, RT-qPCR panel, canonical junction mRNA, compound concentration having 50% response in CJ decrease
[9] = Homo sapiens, K562, 24 h, Table 13A
[10] = Homo sapiens, 24 h, decrease in CJ mRNA, A673 or K562 cells, 24 hours treatment, RT-qPCR, read-out: MYB CJ IC50
[11] = Homo sapiens, 24 h, A673 or K562 cells, 24 hours treatment, RT-qPCR
[12] = Homo sapiens, RT-qPCR panel, canonical junction mRNA, compound concentration having 50% response in CJ decrease, read-out: MYB IC50 (decrease in CJ mRNA levels)
[13] = Homo sapiens, RT-qPCR panel, canonical junction mRNA, compound concentration having 50% response in CJ decrease, read-out: HTT IC50 (decrease in CJ mRNA levels)
[14] = Homo sapiens, gene panel, CJ qPCR, protocol of Example 142
[15] = Homo sapiens, K562, 24 h, Table 13B
[16] = Homo sapiens, 24 h, decrease in CJ mRNA, A673 or K562 cells, 24 hours treatment, RT-qPCR, read-out: HTT CJ IC50

IC50 (Target C [1]; [8])	IC50 (Target C [2]; [9])	IC50 (MYB [3]; [12])	IC50 (HTT [4]; [13])	IC50 (HTT [5]; [9])	IC50 (SMN2; [8])	IC50 (MYB [6]; [9])	Structure (SMILES)	IC50 (MYB [3]; [10])	AC50 (MYB [3]; [11])	AC50 (HTT [4]; [11])	IC50 (HTT [4]; [16])	other results
							FC1(F)CC2CC(Oc3ccc(-c4ccc(-c5cn[nH]c5)c5cn[nH]c45)nn3)CC1N2 (stereo not drawn) [Compound 374, 7-[6-({6,6-difluoro-8-azabicyclo[3.2.1]octan-3-yl}oxy)pyridazin-3-yl]-4-(1H-pyrazol-4-yl)-1H-indazole]					IC50 (Target C [1]; [7]): > 10000 nM; IC50 (Target C [2]; Table 13A, 24 hours): > 10000 nM; IC50 (MYB [3]; RT-qPCR panel, canonical junction mRNA, compound concentration having 50% response in CJ decrease, read-out: MYB IC50 (decrease in CJ mRNA levels)): > 10000 nM; IC50 (MYB [3]; decrease in CJ mRNA, A673 or K562 cells, 24 hours treatment, RT-qPCR, read-out: MYB CJ IC50): > 10000 nM; IC50 (HTT [4]; RT-qPCR panel, canonical junction mRNA, compound concentration having 50% response in CJ decrease, read-out: HTT IC50 (decrease in CJ mRNA levels)): > 10000 nM; IC50 (HTT [4]; decrease in CJ mRNA, A673 or K562 cells, 24 hours treatment, RT-qPCR, read-out: HTT CJ IC50): > 10000 nM; IC50 (HTT [5]; Table 13A, 24 hours): > 10000 nM; IC50 (SMN2; [7]): > 10000 nM; IC50 (MYB [6]; Table 13A, 24 hours): > 10000 nM
1000 to 10000 nM	100 to 1000 nM	1000 to 10000 nM	100 to 1000 nM	100 to 1000 nM	100 to 1000 nM	1000 to 10000 nM	c1nc2c(-c3cn[nH]c3)ccc(-c3cnc(N4CCN[C@@H](C5CC5)C4)nn3)c2s1 [Compound 552]					
							COc1nc(-c2ccc(N[C@@H]3C[C@H]4CC[C@@H](C3)N4)nn2)ccc1-c1cnn(C)n1 [Compound 942]					IC50 (Target C [1]; [14]): 1000 to 10000 nM; IC50 (Target C [2]; [15]): 100 to 1000 nM; IC50 (MYB [3]; Homo sapiens, gene panel, CJ qPCR, protocol of Example 142, read-out: MYB IC50 (decrease in CJ mRNA levels)): > 10000 nM; IC50 (HTT [4]; Homo sapiens, gene panel, CJ qPCR, protocol of Example 142, read-out: HTT IC50 (decrease in CJ mRNA levels)): 1000 to 10000 nM; IC50 (HTT [5]; [15]): < 100 nM; IC50 (SMN2; [14]): < 100 nM; IC50 (MYB [6]; [15]): 100 to 1000 nM
> 10000 nM	1000 to 10000 nM	> 10000 nM	1000 to 10000 nM	1000 to 10000 nM	1000 to 10000 nM	> 10000 nM	c1cnn(-c2ccc(-c3cnc(N4CCC(NC5CC5)C4)nn3)c3cn[nH]c23)c1 (stereo not drawn) [Compound 484, N-cyclopropyl-1-[6-(7-pyrazol-1-yl-1H-indazol-4-yl)-1,2,4-triazin-3-yl]pyrrolidin-3-amine]					
> 10000 nM	1000 to 10000 nM	1000 to 10000 nM	1000 to 10000 nM	1000 to 10000 nM	1000 to 10000 nM	1000 to 10000 nM	CNC1CCN(c2ncc(-c3ccc(-n4cccn4)c4[nH]ncc34)nn2)C1 (stereo not drawn) [Compound 485, N-methyl-1-[6-(7-pyrazol-1-yl-1H-indazol-4-yl)-1,2,4-triazin-3-yl]pyrrolidin-3-amine]					
> 10000 nM	> 10000 nM	> 10000 nM	> 10000 nM	> 10000 nM	> 10000 nM	> 10000 nM	c1nc2c(-c3cn[nH]c3)ccc(-c3ccc(N4CCC5(CCNCC5)C4)nn3)c2s1 [Compound 190]	> 10000 nM	> 10000 nM	> 10000 nM	> 10000 nM	
1000 to 10000 nM	1000 to 10000 nM	1000 to 10000 nM	1000 to 10000 nM	1000 to 10000 nM	100 to 1000 nM	1000 to 10000 nM	CC(C)(C)NC1CCN(c2ccc(-c3ccc(-n4cccn4)c4[nH]ncc34)nn2)C1 (stereo not drawn) [Compound 380, N-tert-butyl-1-{6-[7-(pyrazol-1-yl)-1H-indazol-4-yl]pyridazin-3-yl}pyrrolidin-3-amine]	1000 to 10000 nM	1000 to 10000 nM	1000 to 10000 nM	1000 to 10000 nM	

Structure (SMILES)	IC50 (Target C [1]; [8])	IC50 (Target C [2]; [9])	IC50 (MYB [3]; [12])	IC50 (HTT [4]; [13])	IC50 (HTT [5]; [9])	IC50 (SMN2; [8])	IC50 (MYB [6]; [9])	IC50 (MYB [3]; [10])	AC50 (MYB [3]; [11])	AC50 (HTT [4]; [11])	IC50 (HTT [4]; [16])	other results
Cn1ncc(-c2ccc(-c3ccc(N[C@@H]4C[C@H]5CC[C@@H](C4)N5)nn3)c3[nH]ncc23)n1 [Compound 322]	< 100 nM	< 100 nM	< 100 nM	< 100 nM	< 100 nM	< 100 nM	< 100 nM	< 100 nM	< 100 nM	< 100 nM		
[2H]C([2H])([2H])N(c1ccc(-c2ccc(-c3cn[nH]c3)c3cn[nH]c23)nn1)C1CC(C)(C)NC(C)(C)C1 [Compound 292]	1000 to 10000 nM	100 to 1000 nM	100 to 1000 nM	100 to 1000 nM	100 to 1000 nM	< 100 nM	100 to 1000 nM	100 to 1000 nM	1000 to 10000 nM	100 to 1000 nM	100 to 1000 nM	
CN(c1ccc(-c2cc(F)c(-c3cnn(C)c3)c3cn[nH]c23)nn1)C1CC(C)(C)NC(C)(C)C1 [Compound 320, 6-[5-fluoro-4-(1-methylpyrazol-4-yl)-1H-indazol-7-yl]-N-methyl-N-(2,2,6,6-tetramethylpiperidin-4-yl)pyridazin-3-amine]	1000 to 10000 nM		100 to 1000 nM	100 to 1000 nM	100 to 1000 nM	< 100 nM	100 to 1000 nM	100 to 1000 nM		100 to 1000 nM	100 to 1000 nM	IC50 (Target C [2]; Table 13A, 24 hours): 100 to 1000 nM
